Measurements published in paper PMC11345841, “Exploring 2-Sulfonylpyrimidine Warheads as Acrylamide Surrogates for Targeted Covalent Inhibition: A BTK Story” (Journal of Medicinal Chemistry, 2024).
Like-named read-outs stand apart in the source and are kept apart here.

Columns and labels:
Experiment in all cases: KINOMEscan ScanTK
Assay type in all cases: binding
PYK2 = target: T1, PYK2 (Homo sapiens, UniProt Q14289)
T1 construct: purchased Eurofins DiscoverX KINOMEscan (scanTK)

LYN = target: T2, LYN (Homo sapiens, UniProt P07948)
T2 construct: purchased Eurofins DiscoverX KINOMEscan (scanTK)

[1] = target: T3, JAK1(JH1domain-catalytic) (Homo sapiens, UniProt P23458)
T3 construct: JAK1(JH1domain-catalytic); purchased Eurofins DiscoverX KINOMEscan (scanTK)
T3 sequence (P23458 875-1154 limits assumed): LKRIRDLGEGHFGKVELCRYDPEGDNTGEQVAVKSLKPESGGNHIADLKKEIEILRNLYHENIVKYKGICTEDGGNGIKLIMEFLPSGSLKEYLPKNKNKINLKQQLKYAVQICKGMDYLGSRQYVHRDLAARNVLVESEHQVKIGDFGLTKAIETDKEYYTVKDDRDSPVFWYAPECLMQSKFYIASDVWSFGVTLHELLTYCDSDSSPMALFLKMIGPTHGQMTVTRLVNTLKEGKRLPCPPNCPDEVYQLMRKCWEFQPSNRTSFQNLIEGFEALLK

CSK = target: T4, CSK (Homo sapiens, UniProt P41240)
T4 construct: purchased Eurofins DiscoverX KINOMEscan (scanTK)
T4 sequence (P41240 whole entry): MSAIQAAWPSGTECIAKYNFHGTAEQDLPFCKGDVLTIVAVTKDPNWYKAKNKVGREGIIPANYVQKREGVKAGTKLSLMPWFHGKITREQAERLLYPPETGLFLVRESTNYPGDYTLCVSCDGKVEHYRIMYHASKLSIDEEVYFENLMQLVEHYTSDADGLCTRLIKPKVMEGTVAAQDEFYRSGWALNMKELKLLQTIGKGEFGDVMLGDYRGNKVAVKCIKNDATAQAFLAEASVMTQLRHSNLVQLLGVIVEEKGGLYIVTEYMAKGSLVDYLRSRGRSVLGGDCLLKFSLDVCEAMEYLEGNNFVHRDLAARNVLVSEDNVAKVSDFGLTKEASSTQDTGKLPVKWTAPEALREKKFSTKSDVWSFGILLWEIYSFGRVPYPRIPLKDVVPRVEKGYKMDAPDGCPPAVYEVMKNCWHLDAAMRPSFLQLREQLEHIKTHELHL

KIT-autoinhibited = target: T5, KIT-autoinhibited (Homo sapiens, UniProt P10721)
T5 construct: purchased Eurofins DiscoverX KINOMEscan (scanTK)
T5 sequence (P10721 26-976): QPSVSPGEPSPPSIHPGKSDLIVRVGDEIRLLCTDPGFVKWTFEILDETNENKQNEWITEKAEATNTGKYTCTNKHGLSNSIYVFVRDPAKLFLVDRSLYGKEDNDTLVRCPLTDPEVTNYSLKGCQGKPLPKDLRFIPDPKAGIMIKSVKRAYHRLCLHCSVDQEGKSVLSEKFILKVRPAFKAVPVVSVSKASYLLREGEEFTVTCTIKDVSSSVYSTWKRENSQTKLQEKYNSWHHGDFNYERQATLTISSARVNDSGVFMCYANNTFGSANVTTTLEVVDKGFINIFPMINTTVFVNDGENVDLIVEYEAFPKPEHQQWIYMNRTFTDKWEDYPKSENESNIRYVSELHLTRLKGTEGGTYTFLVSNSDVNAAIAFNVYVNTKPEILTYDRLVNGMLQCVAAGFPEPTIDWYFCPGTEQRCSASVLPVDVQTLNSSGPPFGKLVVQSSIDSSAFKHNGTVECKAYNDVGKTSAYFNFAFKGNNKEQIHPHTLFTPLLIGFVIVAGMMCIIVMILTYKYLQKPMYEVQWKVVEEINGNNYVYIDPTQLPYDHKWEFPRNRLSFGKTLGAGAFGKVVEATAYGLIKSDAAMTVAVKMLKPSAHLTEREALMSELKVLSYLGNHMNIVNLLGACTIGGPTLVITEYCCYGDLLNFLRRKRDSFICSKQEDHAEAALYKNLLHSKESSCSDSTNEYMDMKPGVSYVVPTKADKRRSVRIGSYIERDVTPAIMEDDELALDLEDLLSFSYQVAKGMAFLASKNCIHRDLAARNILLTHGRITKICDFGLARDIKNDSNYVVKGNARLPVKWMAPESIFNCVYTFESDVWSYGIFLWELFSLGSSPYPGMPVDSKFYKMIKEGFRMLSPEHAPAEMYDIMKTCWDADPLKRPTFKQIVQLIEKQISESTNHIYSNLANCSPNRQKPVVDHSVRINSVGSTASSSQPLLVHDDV

RET(M918T) = target: T6, RET(M918T) (Homo sapiens, UniProt P07949, M918T)
T6 construct: purchased Eurofins DiscoverX KINOMEscan (scanTK)

[2] = target: T7, ABL1(Q252H)-nonphosphorylated (Homo sapiens, UniProt P00519, Q252H)
T7 construct: purchased Eurofins DiscoverX KINOMEscan (scanTK)

MET(M1250T) = target: T8, MET(M1250T) (Homo sapiens, UniProt P08581, M1250T)
T8 construct: purchased Eurofins DiscoverX KINOMEscan (scanTK)

ROS1 = target: T9, ROS1 (Homo sapiens, UniProt P08922)
T9 construct: purchased Eurofins DiscoverX KINOMEscan (scanTK)

TNK2 = target: T10, TNK2 (Homo sapiens, UniProt Q07912)
T10 construct: purchased Eurofins DiscoverX KINOMEscan (scanTK)

TRKA = target: T11, TRKA (Homo sapiens, UniProt P04629); details: TRKA
T11 construct: purchased Eurofins DiscoverX KINOMEscan (scanTK)
T11 sequence (P04629 33-796): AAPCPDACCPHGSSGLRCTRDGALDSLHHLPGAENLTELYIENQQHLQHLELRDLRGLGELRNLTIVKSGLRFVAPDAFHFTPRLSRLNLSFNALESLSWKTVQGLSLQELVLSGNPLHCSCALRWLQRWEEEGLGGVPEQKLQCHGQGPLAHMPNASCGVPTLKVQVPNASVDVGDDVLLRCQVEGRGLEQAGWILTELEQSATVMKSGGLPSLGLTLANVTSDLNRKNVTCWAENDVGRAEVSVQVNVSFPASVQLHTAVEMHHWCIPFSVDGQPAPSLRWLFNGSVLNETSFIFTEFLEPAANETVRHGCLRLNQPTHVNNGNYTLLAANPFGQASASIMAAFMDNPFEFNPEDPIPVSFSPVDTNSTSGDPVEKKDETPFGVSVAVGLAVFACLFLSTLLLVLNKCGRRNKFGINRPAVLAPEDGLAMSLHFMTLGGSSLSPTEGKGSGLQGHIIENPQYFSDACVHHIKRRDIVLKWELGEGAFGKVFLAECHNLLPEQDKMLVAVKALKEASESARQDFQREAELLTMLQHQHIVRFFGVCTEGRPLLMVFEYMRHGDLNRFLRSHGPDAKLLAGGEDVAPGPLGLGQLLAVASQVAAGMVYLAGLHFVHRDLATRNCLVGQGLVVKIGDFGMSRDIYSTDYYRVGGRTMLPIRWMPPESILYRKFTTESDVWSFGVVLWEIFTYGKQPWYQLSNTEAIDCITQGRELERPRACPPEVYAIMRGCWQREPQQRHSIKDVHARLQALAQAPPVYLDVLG

FLT3(N841I) = target: T12, FLT3(N841I) (Homo sapiens, UniProt P36888, N841I)
T12 construct: purchased Eurofins DiscoverX KINOMEscan (scanTK)
T12 sequence (P36888 27-993 N841I): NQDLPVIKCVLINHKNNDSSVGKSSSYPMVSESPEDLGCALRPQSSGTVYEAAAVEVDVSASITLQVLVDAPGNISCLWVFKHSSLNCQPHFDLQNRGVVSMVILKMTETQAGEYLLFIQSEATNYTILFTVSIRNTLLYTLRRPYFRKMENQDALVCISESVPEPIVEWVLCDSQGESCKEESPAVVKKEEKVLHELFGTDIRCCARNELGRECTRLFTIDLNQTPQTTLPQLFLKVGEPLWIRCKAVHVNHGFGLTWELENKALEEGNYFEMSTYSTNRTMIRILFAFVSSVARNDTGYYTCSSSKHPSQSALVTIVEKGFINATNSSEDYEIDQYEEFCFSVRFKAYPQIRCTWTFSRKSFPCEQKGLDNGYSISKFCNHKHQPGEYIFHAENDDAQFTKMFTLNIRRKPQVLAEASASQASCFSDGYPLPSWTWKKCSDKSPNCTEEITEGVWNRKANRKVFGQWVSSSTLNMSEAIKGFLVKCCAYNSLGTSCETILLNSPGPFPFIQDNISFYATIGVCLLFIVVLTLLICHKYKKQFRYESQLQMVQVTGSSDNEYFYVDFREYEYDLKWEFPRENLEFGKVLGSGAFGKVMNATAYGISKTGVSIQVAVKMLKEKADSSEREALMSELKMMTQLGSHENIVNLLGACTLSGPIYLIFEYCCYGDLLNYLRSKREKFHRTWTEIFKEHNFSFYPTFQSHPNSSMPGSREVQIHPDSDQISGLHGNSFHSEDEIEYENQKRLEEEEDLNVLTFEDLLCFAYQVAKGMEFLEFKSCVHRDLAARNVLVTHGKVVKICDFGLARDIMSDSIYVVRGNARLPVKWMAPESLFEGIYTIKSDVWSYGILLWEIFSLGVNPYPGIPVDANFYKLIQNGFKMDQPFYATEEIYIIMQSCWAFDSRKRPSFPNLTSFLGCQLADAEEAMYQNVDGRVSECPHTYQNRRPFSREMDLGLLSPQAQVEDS

ALK = target: T13, ALK (Homo sapiens, UniProt Q9UM73)
T13 construct: purchased Eurofins DiscoverX KINOMEscan (scanTK)
T13 sequence (Q9UM73 19-1620): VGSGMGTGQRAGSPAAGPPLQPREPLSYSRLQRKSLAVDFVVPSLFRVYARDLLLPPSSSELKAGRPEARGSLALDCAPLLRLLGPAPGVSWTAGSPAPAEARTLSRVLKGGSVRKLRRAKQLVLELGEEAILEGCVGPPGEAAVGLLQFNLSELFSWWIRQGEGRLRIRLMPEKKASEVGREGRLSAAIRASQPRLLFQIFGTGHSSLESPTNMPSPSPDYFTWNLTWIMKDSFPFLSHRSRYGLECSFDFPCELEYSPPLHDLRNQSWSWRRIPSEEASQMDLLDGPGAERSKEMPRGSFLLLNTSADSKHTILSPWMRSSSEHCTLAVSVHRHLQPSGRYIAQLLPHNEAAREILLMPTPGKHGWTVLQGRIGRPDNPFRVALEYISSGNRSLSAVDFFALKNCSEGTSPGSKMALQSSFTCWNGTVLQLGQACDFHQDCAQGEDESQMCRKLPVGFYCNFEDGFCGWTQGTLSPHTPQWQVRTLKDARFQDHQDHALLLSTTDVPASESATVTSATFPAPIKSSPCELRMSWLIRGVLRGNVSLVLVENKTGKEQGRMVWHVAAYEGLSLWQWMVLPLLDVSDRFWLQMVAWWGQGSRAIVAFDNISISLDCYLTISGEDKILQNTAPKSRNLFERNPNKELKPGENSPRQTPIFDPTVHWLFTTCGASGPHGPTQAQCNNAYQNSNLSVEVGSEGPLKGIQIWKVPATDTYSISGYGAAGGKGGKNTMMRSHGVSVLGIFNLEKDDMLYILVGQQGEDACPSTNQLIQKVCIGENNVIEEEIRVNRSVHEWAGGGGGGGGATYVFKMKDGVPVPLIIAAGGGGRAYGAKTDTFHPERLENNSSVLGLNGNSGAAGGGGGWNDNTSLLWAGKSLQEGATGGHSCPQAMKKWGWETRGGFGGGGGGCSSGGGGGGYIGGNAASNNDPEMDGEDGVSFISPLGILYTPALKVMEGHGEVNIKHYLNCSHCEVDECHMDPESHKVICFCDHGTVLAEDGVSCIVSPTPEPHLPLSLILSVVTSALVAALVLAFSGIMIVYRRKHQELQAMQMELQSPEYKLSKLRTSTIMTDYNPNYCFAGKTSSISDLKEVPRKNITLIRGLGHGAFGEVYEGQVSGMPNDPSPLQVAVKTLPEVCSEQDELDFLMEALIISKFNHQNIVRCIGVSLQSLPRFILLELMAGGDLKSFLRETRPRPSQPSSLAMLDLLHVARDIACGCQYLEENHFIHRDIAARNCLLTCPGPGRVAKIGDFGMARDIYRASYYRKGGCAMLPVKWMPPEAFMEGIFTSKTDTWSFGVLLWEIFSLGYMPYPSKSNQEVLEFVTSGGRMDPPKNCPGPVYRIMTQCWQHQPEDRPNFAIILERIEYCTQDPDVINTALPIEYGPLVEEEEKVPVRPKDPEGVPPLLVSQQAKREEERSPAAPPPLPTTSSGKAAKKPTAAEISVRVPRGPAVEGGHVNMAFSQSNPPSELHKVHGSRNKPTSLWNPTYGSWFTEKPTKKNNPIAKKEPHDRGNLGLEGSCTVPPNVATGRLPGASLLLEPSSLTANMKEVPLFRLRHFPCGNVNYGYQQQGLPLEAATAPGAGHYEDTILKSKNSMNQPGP

CSF1R-autoinhibited = target: T14, CSF1R-autoinhibited (Homo sapiens, UniProt P07333)
T14 construct: purchased Eurofins DiscoverX KINOMEscan (scanTK)
T14 sequence (P07333 539-972 limits assumed): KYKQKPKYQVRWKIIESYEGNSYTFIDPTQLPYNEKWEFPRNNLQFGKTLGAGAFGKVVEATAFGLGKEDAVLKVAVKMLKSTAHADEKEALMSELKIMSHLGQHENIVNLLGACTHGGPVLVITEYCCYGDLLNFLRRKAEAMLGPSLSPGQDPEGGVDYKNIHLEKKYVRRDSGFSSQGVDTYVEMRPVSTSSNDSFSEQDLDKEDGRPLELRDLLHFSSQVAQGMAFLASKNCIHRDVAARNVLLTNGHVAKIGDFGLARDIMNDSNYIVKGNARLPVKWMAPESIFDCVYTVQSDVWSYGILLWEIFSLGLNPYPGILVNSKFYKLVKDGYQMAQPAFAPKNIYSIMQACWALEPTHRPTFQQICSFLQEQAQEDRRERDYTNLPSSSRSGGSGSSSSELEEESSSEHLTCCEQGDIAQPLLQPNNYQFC

SRC = target: T15, SRC (Homo sapiens, UniProt P12931)
T15 construct: purchased Eurofins DiscoverX KINOMEscan (scanTK)

[3] = target: T16, EGFR(L747-S752del, P753S) (Homo sapiens, UniProt P00533, DEL747-752/P753S)
T16 construct: purchased Eurofins DiscoverX KINOMEscan (scanTK)
T16 sequence (P00533 with tags, fused parts or gaps DEL747-752/P753S limits assumed): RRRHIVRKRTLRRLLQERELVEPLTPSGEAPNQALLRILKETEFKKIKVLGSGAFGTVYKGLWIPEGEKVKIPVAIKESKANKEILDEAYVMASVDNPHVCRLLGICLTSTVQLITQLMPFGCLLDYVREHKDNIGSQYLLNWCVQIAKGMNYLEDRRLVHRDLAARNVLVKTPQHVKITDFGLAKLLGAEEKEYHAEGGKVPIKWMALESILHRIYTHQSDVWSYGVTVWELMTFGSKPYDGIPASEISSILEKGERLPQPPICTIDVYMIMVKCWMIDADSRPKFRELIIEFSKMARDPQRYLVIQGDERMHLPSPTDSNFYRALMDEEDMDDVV

BLK = target: T17, BLK (Homo sapiens, UniProt P51451); details: BLK
T17 construct: purchased Eurofins DiscoverX KINOMEscan (scanTK)
T17 sequence (P51451 whole entry): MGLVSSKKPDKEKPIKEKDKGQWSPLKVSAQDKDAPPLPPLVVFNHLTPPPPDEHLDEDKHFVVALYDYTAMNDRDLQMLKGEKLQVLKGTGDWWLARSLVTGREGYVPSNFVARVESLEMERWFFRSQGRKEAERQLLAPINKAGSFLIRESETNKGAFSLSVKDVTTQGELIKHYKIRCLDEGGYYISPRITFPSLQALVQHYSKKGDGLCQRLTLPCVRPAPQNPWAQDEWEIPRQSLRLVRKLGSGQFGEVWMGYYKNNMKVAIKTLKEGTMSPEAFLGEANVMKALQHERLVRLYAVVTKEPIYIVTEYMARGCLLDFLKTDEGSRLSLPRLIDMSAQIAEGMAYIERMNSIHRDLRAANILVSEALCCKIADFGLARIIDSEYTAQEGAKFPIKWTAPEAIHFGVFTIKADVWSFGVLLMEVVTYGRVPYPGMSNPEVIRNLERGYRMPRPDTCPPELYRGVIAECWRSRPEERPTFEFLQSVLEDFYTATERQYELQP

[4] = @1000nM, read-out: % difference (compound - Ib %Control)

SMILES: CNC(=O)c1cnc(S(C)(=O)=O)nc1N1CCCC(n2nc(-c3ccc(Oc4ccccc4)cc3)c3c(N)ncnc32)C1 (centres unmarked) [Compound 8d, 4-(3-(4-Amino-3-(4-phenoxyphenyl)-1H-pyrazolo[3,4-d]pyrimidin-1-yl)piperidin-1-yl)-N-methyl-2-(methylsulfonyl)pyrimidine-5-carboxamide]
- remaining binding at 1 µM (PYK2; @1000nM, read-out: %Control): 100%
- remaining binding at 1 µM (PYK2; read-out: %Control @1000nM): 100%
- remaining binding at 1 µM (LYN; @1000nM, read-out: %Control): 43%
- remaining binding at 1 µM (LYN; read-out: %Control @1000nM): 43%
- difference in %Control versus compound Ib at 1 µM ([1]; @1000nM): 6%
- remaining binding at 1 µM ([1]; @1000nM, read-out: %Control): 100%
- remaining binding at 1 µM ([1]; read-out: %Control @1000nM): 100%
- difference in %Control from reference compound Ib at 1 µM (CSK; @1000nM): 3.6%
- remaining binding at 1 µM (CSK; @1000nM, read-out: %Control): 8.1%
- remaining binding at 1 µM (CSK; read-out: %Control @1000nM): 8.1%
- remaining binding at 1 µM (KIT-autoinhibited; @1000nM, read-out: %Control): 100%
- remaining binding at 1 µM (KIT-autoinhibited; read-out: %Control @1000nM): 100%
- remaining binding at 1 µM (RET(M918T); @1000nM, read-out: %Control): 32%
- remaining binding at 1 µM (RET(M918T); read-out: %Control @1000nM): 32%
- difference in %Control versus reference compound Ib at 1 µM ([2]; @1000nM): 13%
- remaining binding at 1 µM ([2]; @1000nM, read-out: %Control): 26%
- remaining binding at 1 µM ([2]; read-out: %Control @1000nM): 26%
- remaining binding at 1 µM (MET(M1250T); @1000nM, read-out: %Control): 100%
- remaining binding at 1 µM (MET(M1250T); read-out: %Control @1000nM): 100%
- %Control difference versus reference Ib at 1 µM (ROS1; [4]): 3%
- remaining binding at 1 µM (ROS1; @1000nM, read-out: %Control): 100%
- remaining binding at 1 µM (ROS1; read-out: %Control @1000nM): 100%
- remaining binding at 1 µM (TNK2; @1000nM, read-out: %Control): 100%
- remaining binding at 1 µM (TNK2; read-out: %Control @1000nM): 100%
- difference in % of control versus compound Ib at 1 µM (TRKA; @1000nM): -2%
- remaining binding at 1 µM (TRKA; @1000nM, read-out: %Control): 83%
- remaining binding at 1 µM (TRKA; read-out: %Control @1000nM): 83%
- difference in %Control versus compound Ib at 1 µM (FLT3(N841I); @1000nM): 37%
- remaining binding at 1 µM (FLT3(N841I); @1000nM, read-out: %Control): 56%
- remaining binding at 1 µM (FLT3(N841I); read-out: %Control @1000nM): 56%
- difference in %Control versus compound Ib at 1 µM (ALK; @1000nM): -11%
- remaining binding at 1 µM (ALK; @1000nM, read-out: %Control): 83%
- remaining binding at 1 µM (ALK; read-out: %Control @1000nM): 83%
- difference in %Control versus compound Ib at 1 µM (CSF1R-autoinhibited; @1000nM): 9%
- remaining binding at 1 µM (CSF1R-autoinhibited; @1000nM, read-out: %Control): 86%
- remaining binding at 1 µM (CSF1R-autoinhibited; read-out: %Control @1000nM): 86%
- remaining binding at 1 µM (SRC; @1000nM, read-out: %Control): 43%
- remaining binding at 1 µM (SRC; read-out: %Control @1000nM): 43%
- difference in %Control versus compound Ib at 1 µM ([3]; @1000nM): 36.5%
- remaining binding at 1 µM ([3]; @1000nM, read-out: %Control): 42%
- remaining binding at 1 µM ([3]; read-out: %Control @1000nM): 42%
- difference in %Control vs reference Ib at 1 µM (BLK; [4]): -0.05%
- remaining binding at 1 µM (BLK; @1000nM, read-out: %Control): 0%
- remaining binding at 1 µM (BLK; read-out: %Control @1000nM): 0%
